From PubChem BioAssay AID1996 come the findings set out here.

≈ marks a conversion by molar mass, not a printed value.

The conditions of the data set: buffer; pH 7.4; 200.0 µM.
On to `Cc1ccc(CC2C(=O)N(c3cc(C)ccc3C)C(=O)C2C)cc1` (configuration not stated), for which the kinetic solubility (commonly the concentration staying in solution when a stock, usually in DMSO, is diluted into the medium) was found to be 4.6 µg/mL (≈ 14.3 µM).
The figure for `CCCN(CCC)C(=O)Cc1ccc(F)cc1` is 28 µg/mL (≈ 118 µM); for `CC1CCC2(CC1)NC(=O)N(CC(=O)Nc1ccc(C(N)=O)cc1)C2=O` (configuration not stated) it is greater than 53.8 µg/mL.
The figure for `COc1ccccc1NC(=S)NC1CC2CCC1C2` (configuration not stated) is greater than 41.5 µg/mL; for `Cc1ccc(S(=O)(=O)Nc2ccc3[nH]ccc3c2)cc1` it is greater than 43 µg/mL; for `CCOc1ccc(N(C(C)C(=O)N2CCCC2)S(C)(=O)=O)cc1` (configuration not stated) it is greater than 51.1 µg/mL.
The figure for `Cc1ccccc1C(=O)N1CCC(C(=O)NC2CCCCC2)CC1` is 44.4 µg/mL (≈ 135 µM); for `Cc1ccc(CN(Cc2ccco2)C(=S)NCC(=O)NC2CC2)cc1` it is 47.2 µg/mL (≈ 132 µM); for `Cc1cc(C)cc(NC(=O)c2cccc(NC(=O)c3ccco3)c2)c1` it is 1 µg/mL (≈ 2.99 µM).
For `CC(=O)Nc1ccc2c(c1)CCCC2=O`, the kinetic solubility is 30.2 µg/mL (≈ 149 µM).
The figure for `COc1ccc(NC(=O)CN(C)C(=O)Cc2ccc3c(c2)CCC3)cc1` is 12.2 µg/mL (≈ 34.6 µM).
`CNCc1ccccc1OCc1ccccc1F.Cl` came in with a solubility (kinetic) greater than 42.3 µg/mL.
The figure for `COCCCNC(=O)c1ccccc1C(F)(F)F` is greater than 39.2 µg/mL; for `NC(=O)NC(=O)COC(=O)/C=C/c1cccs1` it is 10.4 µg/mL (≈ 40.9 µM).
The result for `CCC(=O)Nc1sc(Cc2ccc3c(c2)OCO3)c(C)c1C(N)=O` reads 5.2 µg/mL (≈ 15 µM); that for `O=C(c1cc(S(=O)(=O)N2CCOCC2)ccc1Cl)N1CCCCC1CO` (configuration not stated), greater than 60.4 µg/mL.
In turn, `CCN(CC)Cc1c(O)ccc2occ(C(=O)c3ccccc3)c12` registered a kinetic solubility of 37.7 µg/mL (≈ 117 µM).
The result for `Cc1sc2ncnc(SCC(=O)N3CCCC(C(N)=O)C3)c2c1C` (configuration not stated) reads 53.6 µg/mL (≈ 147 µM).
Turning to `CC(C)c1nc2sc3c(=O)[nH]c(=S)[nH]c3c2c2c1CCCC2`, the kinetic solubility came to 45.9 µg/mL (≈ 138 µM).
For `O=c1[nH]c(/C=C/c2ccc([N+](=O)[O-])cc2)c([N+](=O)[O-])c(=O)[nH]1`, the kinetic solubility was 24.9 µg/mL (≈ 81.8 µM). Against the preceding compound, the solubility kinetic is about 1.8-fold lower.
The figure for `CCCc1cc(C(=O)Nc2cc(Cl)ccc2O)no1` is 0.6 µg/mL (≈ 2.14 µM); for `O=C(O)C(=O)O.O=[N+]([O-])c1ccccc1CNC1CCCCCC1` it is greater than 50.8 µg/mL.
In turn, `O=C1c2ccccc2C(=O)N1c1cc([N+](=O)[O-])ccn1` registered a kinetic solubility of 29.2 µg/mL (≈ 108 µM).
As for `COC(=O)c1ccccc1N1CCS(=O)(=O)CC1`, the kinetic solubility was greater than 40.4 µg/mL.
With `COc1ccc(Cl)cc1NC(=O)CN1C(=O)NC(Cc2c[nH]c3ccccc23)C1=O` (configuration not stated), the solubility (kinetic) turned out to be 6.7 µg/mL (≈ 15.7 µM).
The result for `COc1ccccc1NC(=O)COc1ccc2ccccc2c1` reads 2.5 µg/mL (≈ 8.13 µM).
The result for `CS(=O)(=O)c1ccccc1C(=O)Nc1nc2ccccc2[nH]1` reads greater than 47.3 µg/mL; that for `Cn1cccc2[nH]c(=O)nc1-2`, 15.5 µg/mL (≈ 104 µM).
On to `O=C(CCC(=O)N1CCOCC1)c1ccc(F)cc1`, for which the kinetic solubility was greater than 39.8 µg/mL.
The figure for `CCN(CC(=O)Nc1ccc(NC(C)=O)cc1)C(=O)c1ccc(=O)[nH]c1` is 50.4 µg/mL (≈ 141 µM).
The result for `Cc1ccc(NC(=O)COC(=O)C2C3CC4OC(=O)C2C4C3)cc1` (configuration not stated) reads 47.3 µg/mL (≈ 144 µM).
In turn, `CNC(=O)NC(=O)Cn1cnc2sc(-c3ccccc3)cc2c1=O` showed a solubility (kinetic) of 0.4 µg/mL (≈ 1.17 µM).
The figure for `CCCc1ccc(C(=O)NC(=O)c2ccccc2O)cc1` is 3.2 µg/mL (≈ 11.3 µM); for `CCCc1nc2sc3c(=O)[nH]cnc3c2c2c1CCCC2` it is 0.4 µg/mL (≈ 1.34 µM).
`CCCCn1c(N)c(N(CCC(C)C)C(=O)COC(=O)/C=C/c2ccc(F)cc2)c(=O)[nH]c1=O` yielded a solubility (kinetic) of 8.5 µg/mL (≈ 17.9 µM).
Compound `O=C1CSC(c2ccccc2)N1c1ccccc1F` (configuration not stated) came in with a solubility (kinetic) of 40.3 µg/mL (≈ 147 µM). Compared with the last compound, the solubility kinetic is about 4.7-fold higher.
`Cc1nc2ccc(NS(=O)(=O)c3c(F)cccc3F)cc2s1` displayed a kinetic solubility greater than 51.1 µg/mL.
With `OCC1(CO)COC(/C=C/c2ccccc2)=N1`, the solubility (kinetic) was greater than 35 µg/mL.
The figure for `Cc1onc(-c2ccccc2Cl)c1C(=O)OCC(=O)N1CCC(C)CC1` is greater than 56.5 µg/mL.
`COC(=O)c1cc(Cl)c(NC(=O)Cc2ccccc2)cc1OC` came in with a solubility (kinetic) of 25.6 µg/mL (≈ 76.7 µM).
With `COC(CNC(=O)CN1CCN(Cc2ccccc2F)C1=O)OC`, the kinetic solubility is greater than 50.9 µg/mL.
In turn, `CC(C)N(Cc1nc(COc2ccccc2)no1)Cc1nccn1C` came in with a kinetic solubility of 48.2 µg/mL (≈ 141 µM).
The figure for `O=C(Cc1ccc(Br)cc1)N1CCOCC1` is 38.8 µg/mL (≈ 137 µM); for `Cc1ccccc1NC(=O)Nc1ccc2c(c1)OCO2` it is 0.5 µg/mL (≈ 1.85 µM).
The result for `Cc1ccc(C(O)(CNCc2ccccc2)c2ccccc2)cc1` (configuration not stated) reads 26.2 µg/mL (≈ 82.5 µM); that for `CCOC(=O)CC1C(=O)NCCN1C(=O)c1ccc(C)cc1` (configuration not stated), greater than 45.7 µg/mL; that for `C=CCN(C(=O)c1ccccc1)C1CCS(=O)(=O)C1` (configuration not stated), 37.4 µg/mL (≈ 134 µM).
The figure for `CS(=O)(=O)/C(C#N)=C/c1cccn1S(=O)(=O)c1ccccc1` is 6.8 µg/mL (≈ 20.2 µM); for `O=C(CN1CCCCCCC1)Nc1cccc(Cl)c1Cl` it is less than 0.3 µg/mL; for `Fc1ccc(-c2ncc3ccccn23)cc1` it is 14.3 µg/mL (≈ 67.4 µM).
Turning to `Cc1ccc(NC(=O)CNc2cccc(Br)c2)cc1S(=O)(=O)N1CCOCC1`, the solubility (kinetic) came to 14.3 µg/mL (≈ 30.5 µM).
The figure for `Nc1nonc1C(=O)NCCNc1ncccc1[N+](=O)[O-]` is 30.2 µg/mL (≈ 103 µM); for `Cc1ccc(C(C)C)c(OCCCn2ccnc2C)c1.O=C(O)C(=O)O` it is 51.2 µg/mL.
`N#Cc1ccc(C(=O)Nc2ccc3ccccc3c2)cc1` gave a kinetic solubility of 0.4 µg/mL (≈ 1.47 µM).
Compound `CN(C(=S)Nc1ccc(SC(F)F)cc1)c1ccc(O)cc1` registered a solubility (kinetic) greater than 51.1 µg/mL.
The compound `Cc1nc2cc(NC(=O)c3ccco3)ccc2n1C` had a kinetic solubility of 38.2 µg/mL (≈ 150 µM).
For the compound `CC1CCC2(CC1)NC(=O)N(CC(=O)NC1CCCCC1C)C2=O` (configuration not stated), the solubility (kinetic) is greater than 50.3 µg/mL.
The figure for `CC1=C(C(=O)OC2CCCCC2)C(c2ccc(O)cc2)NC(=O)N1` (configuration not stated) is greater than 49.6 µg/mL.
With `O=C(O)C1C2C=CC(C2)C1C(=O)Nc1ccccc1Br` (configuration not stated), the kinetic solubility is greater than 50.4 µg/mL.
The result for `CCC(C(=O)Nc1ncc(C)s1)c1ccccc1` (configuration not stated) reads 2.9 µg/mL (≈ 11.1 µM); that for `Cc1ccc(C)c(NC(=O)c2ccc3nccnc3c2)c1`, 6.4 µg/mL (≈ 23.1 µM).
The figure for `COc1ccc(C2C(C#N)=C(N)Oc3cc(O)ccc32)cc1C` (configuration not stated) is 31.5 µg/mL (≈ 102 µM); for `Cc1csc(C(=O)O)c1NC(=O)c1ccc(F)cc1` it is greater than 41.9 µg/mL.
The figure for `CCC(C)C(NC(=O)c1ccccc1NC(=O)c1ccccc1)C(=O)O` (configuration not stated) is 50.7 µg/mL (≈ 143 µM).
For the compound `N#Cc1ccc(S(=O)(=O)NC2CCN(Cc3ccccc3)CC2)cc1`, the kinetic solubility is 42.5 µg/mL (≈ 120 µM).
`COc1ccccc1N1C(=O)CSC1=NC(=O)c1ccccc1` registered a solubility (kinetic) of 3 µg/mL (≈ 9.19 µM).
The figure for `Cc1ccc(CC(CC(=O)O)C(=O)Nc2ccc(Cl)cc2)cc1` (configuration not stated) is 48.6 µg/mL (≈ 146 µM).
The figure for `Cc1noc(C)c1COC(=O)CNC(=O)c1cccc(F)c1` is 45.9 µg/mL (≈ 150 µM); for `O=C(CN1CCC(NC(=O)Nc2ccccc2)CC1)Nc1ccccc1F` it is 17.5 µg/mL (≈ 47.2 µM); for `COc1cccc(C(=O)Nc2cccc(NC(=O)c3ccccc3Cl)c2)c1` it is 7.4 µg/mL (≈ 19.4 µM).
Regarding `COc1ccc(Oc2nc(-c3ccccn3)nc3ccccc23)cc1`, the kinetic solubility came out at 17.6 µg/mL (≈ 53.4 µM). Against the preceding compound, the solubility kinetic is about 2.4-fold higher.
On to `COC(=O)C1=C(C)N(c2ccccc2)/C(=C/c2ccco2)C1=O`, for which the solubility (kinetic) was 3.3 µg/mL (≈ 10.7 µM).
Turning to `CCc1nc(Nc2ccc(F)cc2)c2oc3ccccc3c2n1.Cl`, the kinetic solubility was determined as 0.8 µg/mL.
The figure for `CCOc1ncccc1C(=O)OCc1cccc([N+](=O)[O-])c1` is 0.5 µg/mL (≈ 1.65 µM); for `O=C(COC(=O)c1cnccn1)NC(=O)c1ccccc1` it is greater than 42.8 µg/mL.
The result for `CC1CCCCN1Cc1ccc(Cl)nc1` (configuration not stated) reads 15.5 µg/mL (≈ 69 µM); that for `CC(=O)C1=C(c2ccccc2)NC(=O)NC1c1cccs1` (configuration not stated), 28.2 µg/mL (≈ 94.5 µM).
The result for `Cc1nc2ccccc2c(=O)n1-c1cc(F)ccc1F` reads greater than 40.8 µg/mL; that for `Cc1cc2sc3nc(=O)n(-c4ccccc4)c(=O)n3c2cc1C`, 5.8 µg/mL (≈ 17.9 µM).
For `O=C(O)c1ccc(/C=C/c2nc3ccccc3c(=O)[nH]2)cc1`, the solubility (kinetic) is greater than 43.8 µg/mL.
`CCOC(=O)c1csc(NC(=O)C2=COCCO2)n1` gave a kinetic solubility greater than 42.6 µg/mL.
The result for `Cc1c(C(=O)O)nn(-c2cccc(C(F)(F)F)c2)c(=O)c1C#N` reads greater than 48.5 µg/mL.
The compound `COc1ccc(C(=O)COC(=O)c2sc(C)nc2C)cc1F` came in with a solubility (kinetic) of 36.5 µg/mL (≈ 113 µM).
The figure for `COCCNc1ccc(N2C(=O)CCCC2=O)cc1[N+](=O)[O-]` is 45.8 µg/mL (≈ 149 µM); for `Cc1ccc(C(=O)NC2CC(C)(C)NC(C)(C)C2)cc1Cl` it is 43.6 µg/mL (≈ 141 µM); for `CC(C)=CC(=O)OCC(=O)NC1CCCc2ccccc21` (configuration not stated) it is 25 µg/mL (≈ 87 µM).
The result for `O=C(NCc1ccco1)c1ccc2c(c1)OCCO2` reads 37.6 µg/mL (≈ 145 µM).
The figure for `Cc1ccccc1-n1nc2c(c1NC(=O)CC(C)C)CS(=O)C2` (configuration not stated) is greater than 49.7 µg/mL; for `Cc1ccc(Nc2nc(=O)c3cccnc3s2)c(Br)c1` it is 2.4 µg/mL (≈ 6.89 µM).
In turn, `Cc1cccc(C)c1OCC(=O)Nc1cccc(C(=O)O)c1` came in with a solubility (kinetic) greater than 44.9 µg/mL.
For the compound `Cc1ccnc(NS(=O)(=O)c2ccc(NC(=O)c3oc4ccc(F)cc4c3C)cc2)n1`, the kinetic solubility was found to be 1.6 µg/mL (≈ 3.63 µM).
The result for `Cc1nc(Cl)c(C(=O)NCc2ccccc2)c(C)c1[N+](=O)[O-]` reads 10.8 µg/mL (≈ 33.8 µM).
Turning to `Cn1c(=O)c2c([nH]c(=S)n2CCCc2ccccc2)n(C)c1=O`, the kinetic solubility turned out to be 35.8 µg/mL (≈ 108 µM).
The result for `O=C1CNC(=S)N1Cc1cccc(Cl)c1` reads greater than 36.1 µg/mL.
The result for `Cc1cccc(Nc2c([N+](=O)[O-])ccc3nonc23)c1` reads less than 0.1 µg/mL; that for `COc1ccc(OCCSc2ncc(CO)n2C)cc1`, greater than 44.2 µg/mL.
With `COc1cc(CNC(=O)c2cc3ccccc3oc2=O)cc(OC)c1OC`, the kinetic solubility worked out at 4.6 µg/mL (≈ 12.5 µM).
The figure for `O=C(O)c1cccc(NC(=S)NCc2ccccc2)c1` is greater than 43 µg/mL; for `COc1ccc(-c2cc(C(=O)Nc3ccccc3O)c3ccccc3n2)cc1` it is less than 0.4 µg/mL; for `O=[N+]([O-])c1ccccc1S(=O)(=O)N/C(=N/S(=O)(=O)c1ccccc1)c1ccccc1` it is greater than 66.8 µg/mL.
The compound `CCOC(=O)C1=C(C)N(CC(C)C)C(=O)C1` registered a solubility (kinetic) greater than 33.8 µg/mL.
Consider `CCOc1ccc(NC(=O)COC(=O)c2ccc(S(=O)(=O)N3CCOCC3)cc2)cc1`, for which the kinetic solubility was found to be 25.9 µg/mL (≈ 57.7 µM).
